In one series the test system is venous thrombosis. Nature of the series: venous thrombosis test (venous stasis under hypercoagulation, WESSLER technique, activated factor X). The class given is in vivo, Wistar male rats. Conditions: rat; for Activity p.o. T = 4 h (percentage inhibition of thrombus weight): thrombosis induced 4 h after administration; for Activity p.o. T = 8 h (percentage inhibition of thrombus weight): thrombosis induced 8 h after administration; for inhibition in vivo at 5 mg/kg: iv, i.v. in PEG 400, 5 mg/kg, thrombosis induced 2 h after administration, read-out: Activity i.v. T = 2 h (percentage inhibition relative to thrombus weight with vehicle). The protocol:
The test products are administered either orally (tubage) dissolved or suspended in PEG 400, or by intravenous injection dissolved in PEG 400. The concentration of the compounds is calculated so that the amount of solution absorbed is 2 ml/kg by oral administration and 1 ml/kg by intravenous injection. The compounds are generally administered intravenously at a dose of 5 mg/kg. If the test is performed after oral administration, the amount administered is calculated so as to correspond to about 2.10^−5 mol/kg. Thrombosis is induced at a time T (2 h, 4 h or 8 hours) after the administration of the product, and the thrombus formed is removed and weighed. To induce this thrombosis, a venous stasis is created under hypercoagulation according to the technique described by WESSLER (J. Applied Physiol. 1959, pp. 943-946), the hypercoagulating agent used being a solution of activated factor X (Xa) having a concentration of 7.5 nKat/kg, supplied by Biogenic. The results obtained, expressed as the percentage inhibition calculated relative to the weight of a thrombus obtained in the absence of active principle in the vehicle, are collated in Table I below. The activity of the test compounds was checked at different doses after they had been administered either orally (p.o.) or intravenously (i.v.). The thrombosis was induced 4 hours or 8 hours after oral administration of the compound and 2 hours after intravenous administration.

Series [1] in a line: solubility in injectable solvents. Conditions: especially water and PEG 400. It counts as physicochemical.
A further series has as its system venous thrombus. Conditions: administered orally, doses of 6 mg/kg and above; cited from earlier work.

Regarding `Cc1cc(=O)oc2cc(O[C@@H]3SC[C@@H](O)[C@H](O)[C@H]3O)ccc12` [D, 4-methyl-2-oxo-2H-1-benzopyran-7-yl 5-thio-β-D-xylopyranoside, reference compound], in the series with venous thrombosis (p.o. in PEG 400, 6 mg/kg), the “Activity p.o. T = 4 h (percentage inhibition of thrombus weight)” value is listed as 84% and the “Activity p.o. T = 8 h (percentage inhibition of thrombus weight)” value was 15%. In addition, the “solubility in injectable solvents” value in series [1] is recorded as “insoluble”. Also, the “reduction of the formation of a venous thrombus” value in the series on venous thrombus was “more than 80%”.
As for `COC(=O)O[C@@H]1[C@@H](OC(=O)OC)[C@H](OC(=O)OC)CS[C@H]1Oc1ccc2c(C)cc(=O)oc2c1` [Ex. 1, 4-Methyl-2-oxo-2H-1-benzopyran-7-yl 2,3,4-tri-O-methoxycarbonyl-5-thio-β-D-xylopyranoside], the inhibition in vivo at 5 mg/kg in the series on venous thrombosis was 84%. For the same compound, in the series with venous thrombosis (p.o. in PEG 400, 9 mg/kg), the “Activity p.o. T = 4 h (percentage inhibition of thrombus weight)” value amounted to 87% and the “Activity p.o. T = 8 h (percentage inhibition of thrombus weight)” value is 66%.
With `CCOC(=O)O[C@@H]1[C@@H](OC(=O)OCC)[C@H](OC(=O)OCC)CS[C@H]1Oc1ccc2c(C)cc(=O)oc2c1` [Ex. 2, 4-Methyl-2-oxo-2H-1-benzopyran-7-yl 2,3,4-tri-O-ethoxycarbonyl-5-thio-β-D-xylopyranoside], the inhibition in vivo at 5 mg/kg in the series with venous thrombosis came out at 73%.
Take `CCCOC(=O)O[C@@H]1[C@@H](OC(=O)OCCC)[C@H](OC(=O)OCCC)CS[C@H]1Oc1ccc2c(C)cc(=O)oc2c1` [Ex. 3, 4-Methyl-2-oxo-2H-1-benzopyran-7-yl 2,3,4-tri-O-propoxycarbonyl-5-thio-β-D-xylopyranoside]: in the series with venous thrombosis, the inhibition in vivo at 5 mg/kg turned out to be 71%.
The same measure, in the same setting: the same measure for `CCCCOC(=O)O[C@@H]1[C@@H](OC(=O)OCCCC)[C@H](OC(=O)OCCCC)CS[C@H]1Oc1ccc2c(C)cc(=O)oc2c1` [Ex. 4, 4-Methyl-2-oxo-2H-1-benzopyran-7-yl 2,3,4-tri-O-butoxycarbonyl-5-thio-β-D-xylopyranoside]: 60%; for `Cc1cc(=O)oc2cc(O[C@@H]3SC[C@@H](OC(=O)OCC(C)C)[C@H](OC(=O)OCC(C)C)[C@H]3OC(=O)OCC(C)C)ccc12` [Ex. 5, 4-Methyl-2-oxo-2H-1-benzopyran-7-yl 2,3,4-tri-O-(2-methylpropoxycarbonyl)-5-thio-β-D-xylopyranoside]: 65%.
As to `COCCOC(=O)O[C@@H]1[C@@H](OC(=O)OCCOC)[C@H](OC(=O)OCCOC)CS[C@H]1Oc1ccc2c(C)cc(=O)oc2c1` [Ex. 6, 4-Methyl-2-oxo-2H-1-benzopyran-7-yl 2,3,4-tri-O-(2-methoxyethoxycarbonyl)-5-thio-β-D-xylopyranoside], the inhibition in vivo at 5 mg/kg in the series with venous thrombosis stood at 52%.
The same measure, in the same setting: the same measure for `C=CCC(=O)O[C@@H]1[C@@H](OC(=O)CC=C)[C@H](OC(=O)CC=C)CS[C@H]1Oc1ccc2c(C)cc(=O)oc2c1` [Ex. 7, 4-Methyl-2-oxo-2H-1-benzopyran-7-yl 2,3,4-tri-O-(2-propenylcarbonyl)-5-thio-β-D-xylopyranoside]: 66%.
Take `C=COC(=O)O[C@@H]1[C@@H](OC(=O)OC=C)[C@H](OC(=O)OC=C)CS[C@H]1Oc1ccc2c(C)cc(=O)oc2c1` [Ex. 8, 4-Methyl-2-oxo-2H-1-benzopyran-7-yl 2,3,4-tri-O-(ethenyloxycarbonyl)-5-thio-β-D-xylopyranoside]: the inhibition in vivo at 5 mg/kg in the series on venous thrombosis is 65%.
For `Cc1cc(=O)oc2cc(O[C@@H]3SC[C@@H](OC(=O)OCCO)[C@H](OC(=O)OCCO)[C@H]3OC(=O)OCCO)ccc12` [Ex. 9, 4-Methyl-2-oxo-2H-1-benzopyran-7-yl 2,3,4-tri-O-(2-hydroxyethoxycarbonyl)-5-thio-β-D-xylopyranoside], the inhibition in vivo at 5 mg/kg in the series with venous thrombosis was 27%. Moreover, in the series with venous thrombosis (p.o. in PEG 400, 11 mg/kg), the “Activity p.o. T = 4 h (percentage inhibition of thrombus weight)” value was 93% and the “Activity p.o. T = 8 h (percentage inhibition of thrombus weight)” value is recorded as 29%.

Source of the values: patent US6602899B1, “β-D-5 thioxylose derivatives, preparation method and therapeutic use” (Fournier Industrie & Sante, priority 1999, dated 2003).
